This passage reports IC50 results from US20230364070A1, “PYRROLO[3,2-C]PYRIDIN-4-ONE DERIVATIVES USEFUL IN THE TREATMENT OF CANCER” (Scorpion Therapeutics, Inc., priority 2020, published 2023).

Holding throughout (format): cell-based
In assay [1] the target is T1, pEGFR in CUTO14 cells (Homo sapiens, UniProt P00533, DUP767-769).
T1 construct: endogenous in cells; host or cells: CUTO14 cells
The assay can be described thus: Inhibitor activity on EGFR phosphorylation (pEGFR AlphaLISA, 2 h), CUTO14 cells. As for the experimental part:
CUTO14 cells were obtained from Dr. Robert C. Doebele at the University of Colorado.
Shake 350 rpm for 1 hr in the dark • 3.4 Prepare donor mix under low light conditions prior to use. Dispense 5 μL of donor mix to all the wells. Mix well on the shaker, seal and wrap in aluminum foil and incubate 1.5 hrs at room temperature in the dark • 3.5 Transfer 18.5 μL mixture to OptiPlate 384, and read using an Envision.

The target in assay [2] is T2, Ba/F3 cells with EGFR exon 20 ASV Ins V769_D770 (Homo sapiens, UniProt P00533, INS769ASV).
T2 construct: expressed in transfected cells; host or cells: Ba/F3 (murine pro-B cells), retroviral transduction, puromycin selection, IL3-independent pool
T2 sequence (P00533 with tags, fused parts or gaps INS769ASV): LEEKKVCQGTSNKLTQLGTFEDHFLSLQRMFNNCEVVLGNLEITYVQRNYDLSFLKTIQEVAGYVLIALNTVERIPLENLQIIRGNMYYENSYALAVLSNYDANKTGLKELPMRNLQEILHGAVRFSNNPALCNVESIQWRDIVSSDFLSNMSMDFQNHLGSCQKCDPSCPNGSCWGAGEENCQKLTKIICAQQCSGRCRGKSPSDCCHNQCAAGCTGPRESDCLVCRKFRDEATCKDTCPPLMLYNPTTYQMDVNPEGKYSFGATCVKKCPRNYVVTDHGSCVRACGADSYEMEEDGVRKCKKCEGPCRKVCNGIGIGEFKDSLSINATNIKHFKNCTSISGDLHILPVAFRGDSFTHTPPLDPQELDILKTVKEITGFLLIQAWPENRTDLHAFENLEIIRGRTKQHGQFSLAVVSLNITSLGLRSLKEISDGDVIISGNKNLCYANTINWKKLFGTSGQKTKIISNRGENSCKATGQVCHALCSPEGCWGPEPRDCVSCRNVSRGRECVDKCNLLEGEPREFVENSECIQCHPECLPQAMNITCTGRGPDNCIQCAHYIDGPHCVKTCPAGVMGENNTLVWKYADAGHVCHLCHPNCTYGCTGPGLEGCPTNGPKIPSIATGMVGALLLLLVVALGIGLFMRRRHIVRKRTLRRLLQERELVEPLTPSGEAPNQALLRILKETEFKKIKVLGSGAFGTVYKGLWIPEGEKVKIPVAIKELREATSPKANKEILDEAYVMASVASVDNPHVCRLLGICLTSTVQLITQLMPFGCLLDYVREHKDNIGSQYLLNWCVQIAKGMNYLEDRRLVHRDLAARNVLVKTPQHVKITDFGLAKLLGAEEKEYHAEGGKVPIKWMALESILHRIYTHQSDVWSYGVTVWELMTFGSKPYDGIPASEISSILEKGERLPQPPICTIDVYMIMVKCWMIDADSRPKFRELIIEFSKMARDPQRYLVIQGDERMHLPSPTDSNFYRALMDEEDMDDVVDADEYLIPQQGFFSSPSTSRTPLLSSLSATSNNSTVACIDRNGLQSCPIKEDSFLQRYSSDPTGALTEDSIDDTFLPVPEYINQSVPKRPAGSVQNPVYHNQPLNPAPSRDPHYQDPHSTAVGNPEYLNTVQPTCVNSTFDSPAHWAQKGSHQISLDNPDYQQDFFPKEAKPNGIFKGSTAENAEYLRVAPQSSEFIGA
Description: EGFR activity: Ba/F3 cell viability (CellTiter-Glo, 72 h), EGFR exon 20 ASV insertion. As to conditions: EGFR exon 20 ASV Ins V769_D770, cell viability, read-out: BaF3 ASV IC50. (In general: Cellular ATP, detected with luciferase, serves as a proxy for viable cell number.)

Assay [3] concerns the target T3, Ba/F3 cells with EGFR WT (Homo sapiens, UniProt P00533).
T3 construct: expressed in transfected cells; host or cells: Ba/F3 (murine pro-B cells), retroviral transduction, puromycin selection, maintained with EGF
The assay can be described thus: EGFR activity: Ba/F3 cell viability (CellTiter-Glo, 72 h), EGFR WT. The following applies: read-out: BaF3 WT IC50.

Assay [4] concerns the target T4, Ba/F3 cells with EGFR exon 20 NPG Ins D770_N771 (Homo sapiens, UniProt P00533, INS770NPG).
T4 construct: expressed in transfected cells; host or cells: Ba/F3 (murine pro-B cells), retroviral transduction, puromycin selection, IL3-independent pool
The assay can be described thus: EGFR activity: Ba/F3 cell viability (CellTiter-Glo, 72 h), EGFR exon 20 NPG insertion. The following applies: EGFR exon 20 NPG Ins D770_N771, cell viability, read-out: BaF3 NPG IC50.

T1 sequence (P00533 with tags, fused parts or gaps DUP767-769): as the sequence (P00533 with tags, fused parts or gaps INS769ASV) above
T4 sequence (P00533 with tags, fused parts or gaps INS770NPG): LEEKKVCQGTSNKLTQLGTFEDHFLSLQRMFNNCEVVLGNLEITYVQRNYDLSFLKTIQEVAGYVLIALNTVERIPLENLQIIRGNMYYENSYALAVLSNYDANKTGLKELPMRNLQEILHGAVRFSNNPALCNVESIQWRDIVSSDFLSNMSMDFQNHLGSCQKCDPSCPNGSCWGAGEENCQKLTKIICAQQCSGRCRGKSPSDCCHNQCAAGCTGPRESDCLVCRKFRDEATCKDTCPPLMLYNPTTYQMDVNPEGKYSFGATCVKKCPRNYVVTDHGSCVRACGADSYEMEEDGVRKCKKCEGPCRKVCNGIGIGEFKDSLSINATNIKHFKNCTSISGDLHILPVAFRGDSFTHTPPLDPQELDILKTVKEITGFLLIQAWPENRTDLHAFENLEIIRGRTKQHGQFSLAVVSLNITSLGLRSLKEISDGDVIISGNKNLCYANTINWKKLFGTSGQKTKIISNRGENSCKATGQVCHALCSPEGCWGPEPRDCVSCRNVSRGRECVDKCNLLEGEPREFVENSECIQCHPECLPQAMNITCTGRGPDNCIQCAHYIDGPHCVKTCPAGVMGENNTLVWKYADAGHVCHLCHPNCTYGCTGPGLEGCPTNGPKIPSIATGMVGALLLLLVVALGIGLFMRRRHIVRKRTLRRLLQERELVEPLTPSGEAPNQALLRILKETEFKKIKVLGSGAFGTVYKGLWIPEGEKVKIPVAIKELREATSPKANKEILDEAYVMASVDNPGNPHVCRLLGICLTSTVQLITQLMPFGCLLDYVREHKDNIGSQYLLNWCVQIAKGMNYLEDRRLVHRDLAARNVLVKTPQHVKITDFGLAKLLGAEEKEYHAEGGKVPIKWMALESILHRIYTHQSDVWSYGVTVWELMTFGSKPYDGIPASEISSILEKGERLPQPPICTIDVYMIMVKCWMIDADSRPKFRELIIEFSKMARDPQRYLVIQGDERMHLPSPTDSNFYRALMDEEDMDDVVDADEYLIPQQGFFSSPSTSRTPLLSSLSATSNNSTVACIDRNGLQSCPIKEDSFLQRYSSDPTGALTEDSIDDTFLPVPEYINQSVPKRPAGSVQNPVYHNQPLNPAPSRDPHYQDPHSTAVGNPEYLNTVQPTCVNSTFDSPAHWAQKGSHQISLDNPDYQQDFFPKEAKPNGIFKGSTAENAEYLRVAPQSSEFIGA
T3 sequence (P00533 25-1210): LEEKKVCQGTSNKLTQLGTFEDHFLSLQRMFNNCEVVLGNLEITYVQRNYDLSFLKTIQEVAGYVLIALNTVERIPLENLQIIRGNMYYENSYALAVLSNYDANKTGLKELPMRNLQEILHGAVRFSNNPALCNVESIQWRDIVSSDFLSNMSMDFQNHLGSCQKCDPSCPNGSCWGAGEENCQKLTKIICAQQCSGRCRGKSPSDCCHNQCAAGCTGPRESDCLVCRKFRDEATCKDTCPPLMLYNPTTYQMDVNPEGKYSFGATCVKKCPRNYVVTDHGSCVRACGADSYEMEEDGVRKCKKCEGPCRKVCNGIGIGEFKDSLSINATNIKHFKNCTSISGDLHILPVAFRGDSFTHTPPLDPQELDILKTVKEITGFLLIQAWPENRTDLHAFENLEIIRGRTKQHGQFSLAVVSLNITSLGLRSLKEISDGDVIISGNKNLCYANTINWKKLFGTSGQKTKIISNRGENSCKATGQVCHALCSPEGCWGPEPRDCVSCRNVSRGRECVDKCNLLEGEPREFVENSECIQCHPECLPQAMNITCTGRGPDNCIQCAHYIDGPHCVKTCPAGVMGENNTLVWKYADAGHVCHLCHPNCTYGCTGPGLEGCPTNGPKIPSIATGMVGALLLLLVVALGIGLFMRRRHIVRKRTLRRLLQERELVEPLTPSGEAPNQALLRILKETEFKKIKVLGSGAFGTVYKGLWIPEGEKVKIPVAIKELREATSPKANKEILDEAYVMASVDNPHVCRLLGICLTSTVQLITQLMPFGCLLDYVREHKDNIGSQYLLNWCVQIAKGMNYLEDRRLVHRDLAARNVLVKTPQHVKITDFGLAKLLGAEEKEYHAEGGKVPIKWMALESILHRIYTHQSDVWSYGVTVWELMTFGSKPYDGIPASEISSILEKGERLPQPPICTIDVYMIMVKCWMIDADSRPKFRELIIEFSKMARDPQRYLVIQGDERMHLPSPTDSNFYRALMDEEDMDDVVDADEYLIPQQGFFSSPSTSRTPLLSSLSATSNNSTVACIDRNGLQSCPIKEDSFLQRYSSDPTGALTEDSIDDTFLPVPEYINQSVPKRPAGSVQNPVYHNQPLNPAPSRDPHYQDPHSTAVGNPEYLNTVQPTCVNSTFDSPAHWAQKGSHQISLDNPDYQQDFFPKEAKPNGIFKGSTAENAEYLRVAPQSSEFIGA

In general, IC50 refers to the concentration that gives 50% inhibition. Take `COc1c(F)cccc1Nc1c(-c2ccncc2C#C[C@@]2(C)CCCN2C(=O)/C=C/CN2CC[C@H](OC)C2)[nH]c2c1C(=O)NCC2` [compound 443]: the IC50 is below 100 nM in assay [1], below 100 nM in assay [2], 100 to 1000 nM in assay [3] and below 100 nM in assay [4].
In the case of `COc1c(F)cccc1Nc1c(-c2ccncc2C#CC(C)(C)NC(=O)/C=C/CN[C@H]2CCOC2)[nH]c2c1C(=O)NCC2` [compound 395], the IC50 in assay [1] is 100 to 1000 nM; in assay [2] it was 100 to 1000 nM; in assay [3], above 1000 nM; in assay [4], 100 to 1000 nM.
On to `CC#CC(=O)N1CCC[C@]1(C)C#Cc1cnccc1-c1[nH]c2c(c1Nc1cc(F)cc(Cl)c1OC)C(=O)NCC2` [compound 431], for which the IC50 in assay [1] is below 100 nM; in assay [2], below 100 nM; in assay [3] it was 100 to 1000 nM; in assay [4] it was below 100 nM.
`C=C(F)C(=O)NC(C)(C)C#Cc1cnccc1-c1[nH]c2c(c1Nc1cccc(F)c1OC)C(=O)NCC2` [compound 389]: the IC50 in assay [1] was below 100 nM; in assay [2], below 100 nM; in assay [3], 100 to 1000 nM; in assay [4] it was below 100 nM.
Regarding `CC#CC(=O)N1CC[C@H]1C#Cc1cnccc1-c1[nH]c2c(c1Nc1cccc(F)c1OC)C(=O)NCC2` [compound 374], the concentration for half-maximal inhibition (IC50) in assay [1] is below 100 nM; in assay [2], below 100 nM; in assay [3], 100 to 1000 nM; in assay [4], below 100 nM.
`COc1c(F)cccc1Nc1c(-c2ccncc2C#C[C@]2(NC(=O)/C=C/CN(C)C)CCOC2)[nH]c2c1C(=O)NCC2` [compound 418]: the IC50 is 100 to 1000 nM in assay [1], 100 to 1000 nM in assay [2], above 1000 nM in assay [3] and 100 to 1000 nM in assay [4].
Turning to `C=CC(=O)N1CCN(C)C[C@H]1COc1cnccc1-c1[nH]c2c(c1Nc1cccc(Cl)c1OC)C(=O)NCC2` [compound 568], the IC50 in assay [1] was below 100 nM; in assay [2], below 100 nM; in assay [3] it was 100 to 1000 nM; in assay [4], below 100 nM.
As for `C=CC(=O)N1CC(C)(C)C[C@@H]1COc1cnccc1-c1[nH]c2c(c1Nc1cccc(Cl)c1OC)C(=O)NCC2` [compound 265], the IC50 in assay [1], in assay [2], in assay [3] and in assay [4] was below 100 nM each time.
For the compound `CC#CC(=O)N1CCOC[C@H]1COc1cnccc1-c1[nH]c2c(c1Nc1cccc(Cl)c1OC)C(=O)NCC2` [compound 429], the IC50 in assay [1] is 100 to 1000 nM; in assay [2] it was 100 to 1000 nM; in assay [3], 100 to 1000 nM; in assay [4] it was below 100 nM.
For `C=CC(=O)N1[C@H]2CC[C@H](C2)[C@@H]1C#Cc1cnccc1-c1[nH]c2c(c1Nc1cccc(F)c1OC)C(=O)NCC2` [compound 252, 3-[(3-fluoro-2-methoxyphenyl)amino]-2-(3-{2-[(1S,3R,4R)-2-(prop-2-enoyl)-2-azabicyclo[2.2.1]heptan-3-yl]ethynyl}pyridin-4-yl)-1H,5H,6H,7H-pyrrolo[3,2-c]pyridin-4-one], the IC50 in assay [1] is below 100 nM; in assay [2], below 100 nM; in assay [3] it was 100 to 1000 nM; in assay [4], below 100 nM.
Consider `CCc1c(F)cccc1Nc1c(-c2ccncc2OC[C@]2(C)CCN2C(=O)/C=C/CN(C)C)[nH]c2c1C(=O)NCC2` [compound 427], for which the 50% inhibitory concentration (IC50) in assay [1] was below 100 nM; in assay [2], below 100 nM; in assay [3], 100 to 1000 nM; in assay [4], below 100 nM.
For `C=CC(=O)N1CCC[C@]1(C)C#Cc1cnccc1-c1[nH]c2c(c1Nc1cc(F)cc(Cl)c1OC)C(=O)NCC2` [compound 430], the IC50 in assay [1] was below 100 nM; in assay [2], below 100 nM; in assay [3] it was 100 to 1000 nM; in assay [4], below 100 nM.
For `COc1c(F)cccc1Nc1c(-c2ccncc2C#CC2(NC(=O)/C=C/CN(C)C)COC2)[nH]c2c1C(=O)NCC2` [compound 417], the IC50 in assay [1] is 100 to 1000 nM; in assay [2], 100 to 1000 nM; in assay [3] it was above 1000 nM; in assay [4], 100 to 1000 nM.
As for `CC#CC(=O)N1CC[C@@H]1COc1cnccc1-c1[nH]c2c(c1Nc1cccc(F)c1F)C(=O)NCC2` [compound 350], the IC50 in assay [1] was below 100 nM; in assay [2], below 100 nM; in assay [3] it was 100 to 1000 nM; in assay [4], below 100 nM.
As to `COc1c(F)cccc1Nc1c(-c2ccncc2C#C[C@@]2(C)CCCN2C(=O)/C=C/CN2CC[C@@H](OC)C2)[nH]c2c1C(=O)NCC2` [compound 444], the IC50 was below 100 nM in assay [1], below 100 nM in assay [2], 100 to 1000 nM in assay [3] and below 100 nM in assay [4].
In the case of `COc1c(F)cccc1Nc1c(-c2ccncc2C#C[C@@]2(C)CCCN2C(=O)/C=C/CN2CCOCC2)[nH]c2c1C(=O)NCC2` [compound 442], the IC50 in assay [1] is 100 to 1000 nM; in assay [2] it was 100 to 1000 nM; in assay [3], above 1000 nM; in assay [4] it was 100 to 1000 nM.
`C=CC(=O)N1CCN(C)C[C@@H]1COc1cnccc1-c1[nH]c2c(c1Nc1cccc(Cl)c1OC)C(=O)NCC2` [compound 565]: the IC50 in assay [1] was 100 to 1000 nM; in assay [2], 100 to 1000 nM; in assay [3], above 1000 nM; in assay [4], 100 to 1000 nM.
For the compound `C=CC(=O)N1CCN(C)C[C@H]1COc1cnccc1-c1[nH]c2c(c1Nc1cccc(F)c1OC)C(=O)NCC2` [compound 569], the IC50 in assay [1] was below 100 nM; in assay [2], below 100 nM; in assay [3], 100 to 1000 nM; in assay [4], below 100 nM.
Turning to `C=CC(=O)N1[C@H](C#Cc2cnccc2-c2[nH]c3c(c2Nc2cccc(Cl)c2OC)C(=O)NCC3)CC[C@@H]1C` [compound 240, 3-[(3-chloro-2-methoxyphenyl)amino]-2-(3-{2-[(2S,5S)-5-methyl-1-(prop-2-enoyl)pyrrolidin-2-yl]ethynyl}pyridin-4-yl)-1H,5H,6H,7H-pyrrolo[3,2-c]pyridin-4-one], the IC50 in assay [1], in assay [2], in assay [3] and in assay [4] was below 100 nM in each case.
On to `COc1c(Cl)cccc1Nc1c(-c2ccncc2OC[C@@]2(C)CCN2C(=O)/C=C/CN(C)C)[nH]c2c1C(=O)NCC2` [compound 425], for which the IC50 in assay [1] was below 100 nM; in assay [2], below 100 nM; in assay [3], 100 to 1000 nM; in assay [4], below 100 nM.
As to `CC#CC(=O)N1CC[C@@H]1COc1cnccc1-c1[nH]c2c(c1Nc1cc(F)cc(F)c1OC)C(=O)NCC2` [compound 347], the IC50 was below 100 nM in assay [1], below 100 nM in assay [2], 100 to 1000 nM in assay [3] and below 100 nM in assay [4].
On to `CC#CC(=O)N1CC[C@]1(C)COc1cnccc1-c1[nH]c2c(c1Nc1cccc(Cl)c1OC)C(=O)NCC2` [compound 308], for which the IC50 in assay [1] was below 100 nM; in assay [2], below 100 nM; in assay [3] it was 100 to 1000 nM; in assay [4], below 100 nM.
For the compound `COc1c(Cl)cccc1Nc1c(-c2ccncc2C#CC2(NC(=O)/C=C/CN(C)C)COC2)[nH]c2c1C(=O)NCC2` [compound 416], the IC50 in assay [1] is below 100 nM; in assay [2], 100 to 1000 nM; in assay [3] it was above 1000 nM; in assay [4] it was 100 to 1000 nM.
As to `CC#CC(=O)N1CCOC[C@H]1COc1cnccc1-c1[nH]c2c(c1Nc1cccc(F)c1OC)C(=O)NCC2` [compound 292], the IC50 was 100 to 1000 nM in assay [1], 100 to 1000 nM in assay [2], above 1000 nM in assay [3] and 100 to 1000 nM in assay [4].
